Experimental data published in US4638005A, “Monoquaternized pyrazinium compounds and their use as electron carriers in photosynthetic processes” (The Coca-Cola Company, priority 1983, dated 1987).

How the values were obtained:
nitrogenase [1] = molecular target: T1, nitrogenase (Azotobacter vinelandii, UniProt P00459); test: Chloroplast-coupled reduction of acetylene to ethylene by nitrogenase (electron carrier bioassay of Benemann); assay type: biochemical; conditions: for ACTIVITY RELATIVE TO FERREDOXIN (%) / ACTIVITY (nmoles C2 H4 /mg protein/min): Table I; for ACTIVITY RELATIVE TO FERREDOXIN (%): acetylene reduction to ethylene; for ACTIVITY (nmoles C2 H4 /mg protein/min): illuminated spinach chloroplasts, synthetic carriers 2 mM, clostridial ferredoxin 0.2 mM; for ETHYLENE FORMATION % Ferredoxin Activity: Table III ranking; for % FERREDOXIN ACTIVITY: Table IV, acetylene reduction
T1 construct: the nitrogenase sample was prepared from a culture of Azotobacter vinelandii; endogenous in cells; host or cells: Azotobacter vinelandii culture; French press lysate, 10,000 x g supernatant (crude)
T1 sequence (P00459 2-290 limits assumed): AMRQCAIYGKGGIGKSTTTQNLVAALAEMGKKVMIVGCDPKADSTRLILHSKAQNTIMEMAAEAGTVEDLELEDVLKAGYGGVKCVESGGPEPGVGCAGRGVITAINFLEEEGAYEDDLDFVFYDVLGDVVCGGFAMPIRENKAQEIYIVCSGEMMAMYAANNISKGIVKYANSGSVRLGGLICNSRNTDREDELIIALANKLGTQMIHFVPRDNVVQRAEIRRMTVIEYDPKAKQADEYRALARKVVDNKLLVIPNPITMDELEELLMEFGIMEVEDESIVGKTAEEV
Experimental: The activity of the pyrazinium compounds as electron carriers in an illuminated photocouple process using isolated chloroplasts and the reductive enzyme catalyst nitrogenease has been determined using the bioassay of Benemann, et al., Proc. Natl. Acad. Sci. USA, 64, 1079(1969). In this method, the carrier activity is measured as a function of nitrogenase reduction of acetylene to ethylene, the rate of production of ethylene being the direct measurement.
(§1) For the bioassay, the nitrogenase sample was prepared from a culture of Azotobacter vinelandii grown to a cell density of about 1 g/l. The cells harvested by centrifugation were broken in a French press, cell debris spun off at 10,000 XG for 1 hr., and the supernatant containing 40 mg/ml protein was used in the bioassay experiments. […] chloroplasts from spinach leaves as described by Benemann were also used. The synthetic carriers were tested in aqueous solutions at concentrations of 2 mM, while the standard, clostridial ferredoxin, was used in 0.2 mM aqueous solution. The concentrations of carriers in the assay mixtures were chosen so as to guarantee carrier saturation conditions. Thus, the observed differences in rates of ethylene production from the substrate acetylene were assigned directly to variations in the efficiency of electron transfer from the illuminated chloroplast to the nitrogenase. The results obtained for acetylene reduction (nitrogen fixation) using the pyrazinium compounds of Examples 1 through 42 are summarized in Table I and are expressed as nmoles of ethylene produced per mg protein per minute.

nitrogenase [2] = molecular target: T1, nitrogenase; test: Chloroplast-coupled evolution of hydrogen by nitrogenase in the absence of substrate; assay type: biochemical; conditions: for ACTIVITY RELATIVE TO FERREDOXIN (%) / ACTIVITY (nmoles H2 /mg protein/min): Table II, hydrogen evolution; for ACTIVITY (nmoles H2 /mg protein/min): no nitrogen or acetylene, synthetic carriers 2 mM, ferredoxin 0.2 mM
Experimental: as §1
It has been recognized for sometime the connection existing between hydrogen metabolism and nitrogen fixation. […] When nitrogenase was purified extensively, as mentioned above, it became apparent that in addition to nitrogen, nitrogenase also catalyzed the reduction of protons. The evolution of hydrogen is particularly active in the absence of the normal substrates for nitrogenase (nitrogen, acetylene, cyanide, azide, etc.), and is dependent upon a strong reductant and adenosine triphosphate hydrolysis. Since hydrogen evolution is not inhibited by CO, but reduction of nitrogen and other substrates is, the reduction of protons presumably occurs at a site other than the site of nitrogen reduction, H. C. Winter, et. al., Ann Rev. Biochem, 45, 409 (1976). Accordingly, with the same bioassay system and with exclusion of nitrogen, and acetylene, the activity of the pyrazinium compounds to act as carriers for production of hydrogen has been determined.
The results of this study, which are summarized in Table II, indicate that the pyrazinium salts that mediate the reduction of acetylene with electrons from the photoexcited chloroplast, are also mediating the reduction of protons by the nitrogenase.

[3] = Polarographic half-wave potential (first wave reduction); assay type: physicochemical; conditions: 0.1 M phosphate buffer pH 7.55, 25° C.
Text: Sci., 65, 1471(1976). Therefore, it was of interest to measure polarographically the half-wave potentials of the several pyrazinium salts under consideration, to determine the possible effect of structure upon their redox potentials.

Molecule	ACTIVITY RELATIVE TO FERREDOXIN (%) (nitrogenase [1])	ACTIVITY (nmoles C2 H4 /mg protein/min) (nitrogenase [1])	ETHYLENE FORMATION % Ferredoxin Activity (nitrogenase [1]) [%]	% FERREDOXIN ACTIVITY (nitrogenase [1]) [%]	ACTIVITY RELATIVE TO FERREDOXIN (%) (nitrogenase [2])	ACTIVITY (nmoles H2 /mg protein/min) (nitrogenase [2])	E1/2 vs. SCE (mV) [3] [mV]	HYDROGEN EVOLUTION % Ferredoxin Activity (nitrogenase [2]; Table III ranking) [%]
1-Methyl-3(2)-hydroxymethyl-6(5)-methylpyrazinium iodide [Compound 500]	22	3.0 nmoles C2 H4 /mg protein/min	22	22	46	12.3	-751	
CC(O)c1c[n+](C)ccn1 (centres unmarked) [Compound 200, 1-Methyl-3-(1-hydroxyelhyl)pyrazinium iodide]	17	2.3 nmoles C2 H4 /mg protein/min	17	17	64	17.2	-699	
C[n+]1ccnc(CCO)c1.[I-] [Compound 300, 1-Methyl-3-(2-hydroxyethyl)pyrazinium iodide]	41	5.5 nmoles C2 H4 /mg protein/min	41	41	30	8.1	-683	
Cc1c[n+](C)cc(CO)n1.[I-] [Compound 400, 1-Methyl-3-hydroxymethyl-5-methylpyrazinium iodide]	26	3.5 nmoles C2 H4 /mg protein/min	26	26	74	19.7	-738	
Cc1c[n+](CCCS(=O)(=O)[O-])ccn1 [Compound 600]	64	8.7 nmoles C2 H4 /mg protein/min	64	64	106	28.4	-651	
Cc1c[n+](CCCS(=O)(=O)[O-])c(C)cn1 [Compound 700, 1-(3-Sulfonylpropyl)-2,5-dimethylpyrazine]	104	14.0 nmoles C2 H4 /mg protein/min	104	104	74	19.7	-700	
O=C(O)CC[n+]1ccncc1.[Br-] [Compound 800, 1-(2-Carboxyethyl)pyrazinium bromide]	50	6.8 nmoles C2 H4 /mg protein/min	50	50	28	7.5	-625	
C[n+]1ccnc(CCC(=O)O)c1.[I-] [Compound 3900, 1-Methyl-3-(2-carboxyethyl)pyrazinium iodide]	27	3.7 nmoles C2 H4 /mg protein/min	27		45	11.9		
C=Cc1c[n+](C)ccn1 [Compound 5100]		1.8 nmoles C2 H4 /mg protein/min	13	13		2.8		10
